Experimental data taken from paper PMC9203748, “Metabolism and antioxidant activity of SlGSTD1 in Spodoptera litura as a detoxification enzyme to pyrethroids” (Scientific Reports, 2022).
Read-outs that look alike come from different tables or passages of the source.

What was measured:
[1] = molecular target: T1, SlGSTD1 (Spodoptera litura, UniProt A0A9J7IUS4); experiment: inhibition of GSH-CDNB conjugation, A340; assay type: biochemical
T1 construct: gene LOC111355915
T1 sequence (A0A9J7IUS4 1-221): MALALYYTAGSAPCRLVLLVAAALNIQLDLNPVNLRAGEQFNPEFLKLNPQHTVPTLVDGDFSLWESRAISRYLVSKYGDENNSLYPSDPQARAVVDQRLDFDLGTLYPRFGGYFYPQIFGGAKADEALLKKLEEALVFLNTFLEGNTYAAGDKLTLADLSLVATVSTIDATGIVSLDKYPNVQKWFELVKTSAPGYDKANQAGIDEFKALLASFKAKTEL

[2] = molecular target: T1, SlGSTD1; experiment: GSH conjugation, A340, Michaelis-Menten fit; assay type: biochemical; conditions: GSH 30 μL of 100 μmol mL^−1 in about 1.1 mL; PBS 0.1 mol L^−1 pH 7.0

CC1(C)C(/C=C(\Cl)C(F)(F)F)C1C(=O)OC(C#N)c1cccc(Oc2ccccc2)c1 (centres unmarked) [cyhalothrin]
IC50 [1]: 124 ± 10.3 µM

CCOP(=S)(OCC)Oc1nc(Cl)c(Cl)cc1Cl [chlorpyrifos]
IC50 [1]: 170 ± 15.2 µM

O=[N+]([O-])c1ccc(Cl)c([N+](=O)[O-])c1 [CDNB]
Km [2]: 1680 ± 110 µM

CCOC(=O)/C=C\C(=O)OCC [DEM, reference compound]
IC50 ([1]; read-out: IC50): 2.1 ± 0.3 µM

CC(C)C(C(=O)OC(C#N)c1cccc(Oc2ccccc2)c1)c1ccc(Cl)cc1 (centres unmarked) [fenvalerate]
IC50 [1]: 21.6 ± 3.2 µM
